{
  "source": "patent US5905149A",
  "about": "“Substituted quinolymethylen-oxindole analogues as tyrosine kinase inhibitors” (Pharmacia & Upjohn S.p.A, priority 1996, dated 1999)",
  "key": {"[1]": {"test_system": "K562 cells, a human myelogenous leukemia cell line", "experiment": "K562 cell growth inhibition assay", "format": "cell-based", "details": "72 h, cell counting vs untreated control cells", "description": "K562 cell growth inhibition assay\nK562 cells, a human myelogenous leukemia cell line, were seeded into a 24 wells tissue culture plate (Falcon 3047) (10000/well) in the presence of increasing concentrations of the compounds. After 72 h, cells were harvested and were counted using a cell counter (Coulter Counter-ZM). The percent of inhibition was evaluated in respect to the untreated control cells."}, "[2]": {"molecular_target": "p45 v-abl tyrosine kinase", "experiment": "p45 v-abl kinase assay", "format": "biochemical, Abelson murine leukemia virus", "details": "(Val^5)-angiotensin II phosphorylation; peptide 2 mM, ATP 50 μM; pH 8.0; 30° C.; triplicate; read-out: Inhibition of p45 v-abl kinase, IC50", "description": "p45 v-abl kinase purification\nThe enzyme used in our tests is the p45 v-abl tyrosine kinase which represents the catalytic domain of the Abelson tyrosine kinase (isolated from the Abelson murine leukemia virus). The p45 v-abl kinase is produced and isolated as described by Wang et al. in J.Biol.Chem. 260, 64 (1985) and by Ferguson et al. in J. Biol. Chem. 260, 3652 (1985) and in Biochem. J. 257, 321 (1989).\n(Val^5)-angiotensin II phosphorylation is performed, by incubation with 40 ng of purified abl-kinase and (γ-^32 P) ATP, in 50 μl of buffer containing Tris-HCl 25 mM, pH 8.0, MgCl2 10 mM and dithiothreitol 0.1 mM (kinase buffer). The reaction mixture is incubated for the indicated time at 30° C. and the reaction stopped by adding 50 μl of 5% trichloracetic acid. After a brief incubation on ice the tubes are centrifuged. The supernatants are spotted on phosphocellulose paper squares (Whatman P-81) and washed extensively in acetic acid. The radioactivity bound to dried phosphocellulose squares is measured in a liquid scintillation counter. IC50 values are calculated from triplicated determination of each experimental point. Each inhibitor is tested at concentrations ranging from […] in the presence of fixed concentrations of peptide (2 mM) and ATP (50 μM)."}},
  "data": [
    {"smiles": "CCOC(=O)C(C)Oc1ccc(C=C2C(=O)Nc3ccccc32)c2cccnc12", "note": "(centres unmarked) [2-[5-(2-oxindol-3-ylidenemethyl)quinol-8-yloxy]propionic acid ethyl ester]", "values": [
      {"measurement": "IC50", "setting": "[1]", "value": 39.5, "unit": "µM"},
      {"measurement": "IC50", "setting": "[2]", "value": 15, "unit": "µM"}
    ]}
  ]
}
